Laboratory results published in the supplement of paper PMC4862054.

Tested on: HCC1937
Experiment: normalised response (% of control), CellTox Green; higher = less cell death (100 = DMSO, 0 = benzethonium chloride kill control)
Details: incubation time: 72 h
Summary of the method: (§1)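 Compound was dispensed into 384-well plates at 5 concentrations in 10-fold steps spanning a 10,000-fold range specific to that compound. Breast cancer cell lines were added as 20 µl suspension and left for 72 h before CellTox Green fluorescence (485/520 nm) and then CellTiter-Glo luminescence, read after 10 min at room temperature. Each reported value is the normalised signal at one concentration, with 0.1 % DMSO set at 100 and a positive kill control at 0 on each plate.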

Compound	normalised response [%]
CN(C)C(=N)NC(=N)N [Metformin] (100000 nM)	95.3
CN(Cc1cnc2nc(N)nc(N)c2n1)c1ccc(C(=O)N[C@@H](CCC(=O)O)C(=O)O)cc1 [Methotrexate] (50000 nM)	106
C=CCN(/C=C1/C(=O)O[C@H](COC)[C@@]2(C)C1=C(O)C(=O)C1=C2[C@H](OC(C)=O)C[C@]2(C)C(=O)CC[C@@H]12)CC=C [Sonolisib] (10000 nM)	81.7

Tested on: HDQ-P1
Experiment: as above
Details: incubation time: 72 h
Summary of the method: as §1

Compound	normalised response [%]
CCn1c(C(=O)N(C2CC2)C2CC2)cc2c3c(ncn3C)c(Nc3cc(C)n(C)n3)nc21 (10000 nM)	105
CCN(CC)CCCC(C)Nc1ccnc2cc(Cl)ccc12 (centres undefined) [Chloroquine] (100000 nM)	23
Cc1nc(C(=O)NCC(=O)O)c(O)c2ccc(Oc3ccccc3)cc12 [FG-4592] (10000 nM)	114
CN(C)C(=N)NC(=N)N [Metformin] (100000 nM)	99.2
CN(Cc1cnc2nc(N)nc(N)c2n1)c1ccc(C(=O)N[C@@H](CCC(=O)O)C(=O)O)cc1 [Methotrexate] (50000 nM)	112
C=CCN(/C=C1/C(=O)O[C@H](COC)[C@@]2(C)C1=C(O)C(=O)C1=C2[C@H](OC(C)=O)C[C@]2(C)C(=O)CC[C@@H]12)CC=C [Sonolisib] (10000 nM)	108

Tested on: Hs578T
Experiment: as above
Details: incubation time: 72 h
Summary of the method: as §1

Compound	normalised response [%]
CCn1c(C(=O)N(C2CC2)C2CC2)cc2c3c(ncn3C)c(Nc3cc(C)n(C)n3)nc21 (10000 nM)	89.6
CN[C@@H](C)C(=O)N[C@H]1CN(C(=O)CC(C)C)CC[C@H]2CC[C@@H](C(=O)NC(c3ccccc3)c3ccccc3)N2C1=O [AT-406] (10000 nM)	92.7
CCN(CC)CCCC(C)Nc1ccnc2cc(Cl)ccc12 (centres undefined) [Chloroquine] (100000 nM)	-118
O=C(O)CNC(=O)c1c(O)c2ccccc2n(Cc2ccccc2)c1=O [IOX-2] (50000 nM)	113
CN(C)C(=N)NC(=N)N [Metformin] (100000 nM)	52.6
CN(Cc1cnc2nc(N)nc(N)c2n1)c1ccc(C(=O)N[C@@H](CCC(=O)O)C(=O)O)cc1 [Methotrexate] (50000 nM)	-70.6
C=CCN(/C=C1/C(=O)O[C@H](COC)[C@@]2(C)C1=C(O)C(=O)C1=C2[C@H](OC(C)=O)C[C@]2(C)C(=O)CC[C@@H]12)CC=C [Sonolisib] (10000 nM)	111

Tested on: MCF-10A
Experiment: as above
Details: incubation time: 72 h
Summary of the method: as §1

Compound	normalised response [%]
CCn1c(C(=O)N(C2CC2)C2CC2)cc2c3c(ncn3C)c(Nc3cc(C)n(C)n3)nc21 (10000 nM)	109
CN[C@@H](C)C(=O)N[C@H]1CN(C(=O)CC(C)C)CC[C@H]2CC[C@@H](C(=O)NC(c3ccccc3)c3ccccc3)N2C1=O [AT-406] (10000 nM)	112
CCN(CC)CCCC(C)Nc1ccnc2cc(Cl)ccc12 (centres undefined) [Chloroquine] (100000 nM)	-62.8
CC(C)(C)c1nc(-c2cccc(NS(=O)(=O)c3c(F)cccc3F)c2F)c(-c2ccnc(N)n2)s1 [Dabrafenib] (2500 nM)	102
Cc1nc(C(=O)NCC(=O)O)c(O)c2ccc(Oc3ccccc3)cc12 [FG-4592] (10000 nM)	111
O=C(O)CNC(=O)c1c(O)c2ccccc2n(Cc2ccccc2)c1=O [IOX-2] (50000 nM)	107
CN(C)C(=N)NC(=N)N [Metformin] (100000 nM)	89.2
CN(Cc1cnc2nc(N)nc(N)c2n1)c1ccc(C(=O)N[C@@H](CCC(=O)O)C(=O)O)cc1 [Methotrexate] (50000 nM)	103
C=CCN(/C=C1/C(=O)O[C@H](COC)[C@@]2(C)C1=C(O)C(=O)C1=C2[C@H](OC(C)=O)C[C@]2(C)C(=O)CC[C@@H]12)CC=C [Sonolisib] (10000 nM)	108

Tested on: MDA-MB-231
Experiment: as above
Details: incubation time: 72 h
Summary of the method: as §1

Compound	normalised response [%]
CCn1c(C(=O)N(C2CC2)C2CC2)cc2c3c(ncn3C)c(Nc3cc(C)n(C)n3)nc21 (10000 nM)	113
CN[C@@H](C)C(=O)N[C@H]1CN(C(=O)CC(C)C)CC[C@H]2CC[C@@H](C(=O)NC(c3ccccc3)c3ccccc3)N2C1=O [AT-406] (10000 nM)	-35.9
CCN(CC)CCCC(C)Nc1ccnc2cc(Cl)ccc12 (centres undefined) [Chloroquine] (100000 nM)	-46.1
CC(C)(C)c1nc(-c2cccc(NS(=O)(=O)c3c(F)cccc3F)c2F)c(-c2ccnc(N)n2)s1 [Dabrafenib] (2500 nM)	97.8
Cc1nc(C(=O)NCC(=O)O)c(O)c2ccc(Oc3ccccc3)cc12 [FG-4592] (10000 nM)	95.7
O=C(O)CNC(=O)c1c(O)c2ccccc2n(Cc2ccccc2)c1=O [IOX-2] (50000 nM)	100
CN(C)C(=N)NC(=N)N [Metformin] (100000 nM)	69.3
CN(Cc1cnc2nc(N)nc(N)c2n1)c1ccc(C(=O)N[C@@H](CCC(=O)O)C(=O)O)cc1 [Methotrexate] (50000 nM)	92.3
C=CCN(/C=C1/C(=O)O[C@H](COC)[C@@]2(C)C1=C(O)C(=O)C1=C2[C@H](OC(C)=O)C[C@]2(C)C(=O)CC[C@@H]12)CC=C [Sonolisib] (10000 nM)	106

Tested on: MDA-MB-436
Experiment: as above
Details: incubation time: 72 h
Summary of the method: as §1

Compound	normalised response [%]
CCn1c(C(=O)N(C2CC2)C2CC2)cc2c3c(ncn3C)c(Nc3cc(C)n(C)n3)nc21 (10000 nM)	88.1
CN[C@@H](C)C(=O)N[C@H]1CN(C(=O)CC(C)C)CC[C@H]2CC[C@@H](C(=O)NC(c3ccccc3)c3ccccc3)N2C1=O [AT-406] (10000 nM)	85.5
CCN(CC)CCCC(C)Nc1ccnc2cc(Cl)ccc12 (centres undefined) [Chloroquine] (100000 nM)	42.2
CC(C)(C)c1nc(-c2cccc(NS(=O)(=O)c3c(F)cccc3F)c2F)c(-c2ccnc(N)n2)s1 [Dabrafenib] (2500 nM)	107
Cc1nc(C(=O)NCC(=O)O)c(O)c2ccc(Oc3ccccc3)cc12 [FG-4592] (10000 nM)	93.9
O=C(O)CNC(=O)c1c(O)c2ccccc2n(Cc2ccccc2)c1=O [IOX-2] (50000 nM)	67
CN(C)C(=N)NC(=N)N [Metformin] (100000 nM)	93.3
CN(Cc1cnc2nc(N)nc(N)c2n1)c1ccc(C(=O)N[C@@H](CCC(=O)O)C(=O)O)cc1 [Methotrexate] (50000 nM)	42.9
C=CCN(/C=C1/C(=O)O[C@H](COC)[C@@]2(C)C1=C(O)C(=O)C1=C2[C@H](OC(C)=O)C[C@]2(C)C(=O)CC[C@@H]12)CC=C [Sonolisib] (10000 nM)	98.2

Tested on: MDA-MB-453
Experiment: as above
Details: incubation time: 72 h
Summary of the method: as §1

Compound	normalised response [%]
CCn1c(C(=O)N(C2CC2)C2CC2)cc2c3c(ncn3C)c(Nc3cc(C)n(C)n3)nc21 (10000 nM)	97.7
CN[C@@H](C)C(=O)N[C@H]1CN(C(=O)CC(C)C)CC[C@H]2CC[C@@H](C(=O)NC(c3ccccc3)c3ccccc3)N2C1=O [AT-406] (10000 nM)	93.2
CCN(CC)CCCC(C)Nc1ccnc2cc(Cl)ccc12 (centres undefined) [Chloroquine] (100000 nM)	1.49
CC(C)(C)c1nc(-c2cccc(NS(=O)(=O)c3c(F)cccc3F)c2F)c(-c2ccnc(N)n2)s1 [Dabrafenib] (2500 nM)	96.6
Cc1nc(C(=O)NCC(=O)O)c(O)c2ccc(Oc3ccccc3)cc12 [FG-4592] (10000 nM)	95.2
CN(C)C(=N)NC(=N)N [Metformin] (100000 nM)	90.5
CN(Cc1cnc2nc(N)nc(N)c2n1)c1ccc(C(=O)N[C@@H](CCC(=O)O)C(=O)O)cc1 [Methotrexate] (50000 nM)	65
C=CCN(/C=C1/C(=O)O[C@H](COC)[C@@]2(C)C1=C(O)C(=O)C1=C2[C@H](OC(C)=O)C[C@]2(C)C(=O)CC[C@@H]12)CC=C [Sonolisib] (10000 nM)	101

Tested on: MDA-MB-468
Experiment: as above
Details: incubation time: 72 h
Summary of the method: as §1

Compound	normalised response [%]
CCn1c(C(=O)N(C2CC2)C2CC2)cc2c3c(ncn3C)c(Nc3cc(C)n(C)n3)nc21 (10000 nM)	80.7
CN[C@@H](C)C(=O)N[C@H]1CN(C(=O)CC(C)C)CC[C@H]2CC[C@@H](C(=O)NC(c3ccccc3)c3ccccc3)N2C1=O [AT-406] (10000 nM)	57.3
CCN(CC)CCCC(C)Nc1ccnc2cc(Cl)ccc12 (centres undefined) [Chloroquine] (100000 nM)	-27.6
CC(C)(C)c1nc(-c2cccc(NS(=O)(=O)c3c(F)cccc3F)c2F)c(-c2ccnc(N)n2)s1 [Dabrafenib] (2500 nM)	87
Cc1nc(C(=O)NCC(=O)O)c(O)c2ccc(Oc3ccccc3)cc12 [FG-4592] (10000 nM)	125
O=C(O)CNC(=O)c1c(O)c2ccccc2n(Cc2ccccc2)c1=O [IOX-2] (50000 nM)	133
CN(Cc1cnc2nc(N)nc(N)c2n1)c1ccc(C(=O)N[C@@H](CCC(=O)O)C(=O)O)cc1 [Methotrexate] (50000 nM)	77.6

Tested on: MFM-223
Experiment: as above
Details: incubation time: 72 h
Summary of the method: as §1

Compound	normalised response [%]
CCn1c(C(=O)N(C2CC2)C2CC2)cc2c3c(ncn3C)c(Nc3cc(C)n(C)n3)nc21 (10000 nM)	94.3
CN[C@@H](C)C(=O)N[C@H]1CN(C(=O)CC(C)C)CC[C@H]2CC[C@@H](C(=O)NC(c3ccccc3)c3ccccc3)N2C1=O [AT-406] (10000 nM)	103
CCN(CC)CCCC(C)Nc1ccnc2cc(Cl)ccc12 (centres undefined) [Chloroquine] (100000 nM)	0.04
CC(C)(C)c1nc(-c2cccc(NS(=O)(=O)c3c(F)cccc3F)c2F)c(-c2ccnc(N)n2)s1 [Dabrafenib] (2500 nM)	104
Cc1nc(C(=O)NCC(=O)O)c(O)c2ccc(Oc3ccccc3)cc12 [FG-4592] (10000 nM)	104
O=C(O)CNC(=O)c1c(O)c2ccccc2n(Cc2ccccc2)c1=O [IOX-2] (50000 nM)	103
CN(C)C(=N)NC(=N)N [Metformin] (100000 nM)	96.3
CN(Cc1cnc2nc(N)nc(N)c2n1)c1ccc(C(=O)N[C@@H](CCC(=O)O)C(=O)O)cc1 [Methotrexate] (50000 nM)	103
C=CCN(/C=C1/C(=O)O[C@H](COC)[C@@]2(C)C1=C(O)C(=O)C1=C2[C@H](OC(C)=O)C[C@]2(C)C(=O)CC[C@@H]12)CC=C [Sonolisib] (10000 nM)	103

Tested on: BT-474
Experiment: normalised response (% of control), CellTiter-Glo; higher = more viable cells (100 = DMSO, 0 = benzethonium chloride kill control)
Details: incubation time: 72 h
Method: (§2)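 DSRT, 72 h incubation, CellTox Green / CellTiter-Glo readout. Signal is normalised to DMSO and benzethonium chloride controls. Value is the normalised response at the highest dose.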

Compound	normalised response [%]
CCn1c(C(=O)N(C2CC2)C2CC2)cc2c3c(ncn3C)c(Nc3cc(C)n(C)n3)nc21 (10000 nM)	83.3
CN[C@@H](C)C(=O)N[C@H]1CN(C(=O)CC(C)C)CC[C@H]2CC[C@@H](C(=O)NC(c3ccccc3)c3ccccc3)N2C1=O [AT-406] (10000 nM)	16.4
CCN(CC)CCCC(C)Nc1ccnc2cc(Cl)ccc12 (centres undefined) [Chloroquine] (100000 nM)	2.13
CC(C)(C)c1nc(-c2cccc(NS(=O)(=O)c3c(F)cccc3F)c2F)c(-c2ccnc(N)n2)s1 [Dabrafenib] (2500 nM)	100
Cc1nc(C(=O)NCC(=O)O)c(O)c2ccc(Oc3ccccc3)cc12 [FG-4592] (10000 nM)	94.5
O=C(O)CNC(=O)c1c(O)c2ccccc2n(Cc2ccccc2)c1=O [IOX-2] (50000 nM)	85.9
CN(C)C(=N)NC(=N)N [Metformin] (100000 nM)	95.5
CN(Cc1cnc2nc(N)nc(N)c2n1)c1ccc(C(=O)N[C@@H](CCC(=O)O)C(=O)O)cc1 [Methotrexate] (50000 nM)	23.6
C=CCN(/C=C1/C(=O)O[C@H](COC)[C@@]2(C)C1=C(O)C(=O)C1=C2[C@H](OC(C)=O)C[C@]2(C)C(=O)CC[C@@H]12)CC=C [Sonolisib] (10000 nM)	87.1

Tested on: BT-549
Experiment: as above
Details: incubation time: 72 h
Method: as §2

Compound	normalised response [%]
CCn1c(C(=O)N(C2CC2)C2CC2)cc2c3c(ncn3C)c(Nc3cc(C)n(C)n3)nc21 (10000 nM)	102
CN[C@@H](C)C(=O)N[C@H]1CN(C(=O)CC(C)C)CC[C@H]2CC[C@@H](C(=O)NC(c3ccccc3)c3ccccc3)N2C1=O [AT-406] (10000 nM)	64.9
CCN(CC)CCCC(C)Nc1ccnc2cc(Cl)ccc12 (centres undefined) [Chloroquine] (100000 nM)	0.71
